Test results published in US10588950B2, “Compositions and methods for counteracting Factor Xa inhibition” (Pfizer Inc., priority 2013, dated 2020).

Tests used:
[1] = system: whole blood clot formation; assay: Whole blood rotational thromboelastometry (ROTEM); format: cell-based, human
Description: Whole blood thromboelastometry was used to assess the ability of the FXa^I16L variant to reverse the effects of the direct FXa inhibitors in whole blood. In this system, blood is drawn from healthy volunteers. The first 2 mL of blood were discarded and the subsequent 5 mL of blood was collected into a vacutainer (BID, Franklin Lakes, N.J.). Corn trypsin inhibitor and sodium citrate were in the collection tube, prior to collection of the blood sample, to achieve a final concentration of 0.105 M citrate and 25 μg/mL corn trypsin inhibitor (Haematologic Technologies, Burlington, Vt.) in the blood. Two sets of reactions were analyzed for each donor. The initial reaction initiated 5 minutes post blood collection. The second reaction initiated 1 hour post initiation of first reaction (1 hour 5 minutes after collection).
Blood was analyzed using Thromboelastometry ROTEM® delta (Tem International GmbH, Munich, Germany). For the reaction: (1) 6 μL of vehicle, protein, and/or inhibitor were added to the empty cup, (2) 20 μl of 0.2 M CaCl2 (final concentration 11.6 mM), and (3) 20 μl of Innovin (final concentration in reaction 1:10,000; source of tissue factor) were added to the cup. Whole blood collected as described above was added to the reaction (300 up and recordings were allowed to proceed for approximately 30-60 minutes. The data collected was analyzed using the manufacture's software. (Rotem Gamma Software Version 1.1.1).

[2] = system: clot formation at site of vascular injury; assay: Laser-induced injury of mouse cremaster muscle, intravital microscopy; format: in vivo; details: 1 mg/kg rivaroxaban
Source text: Using standard techniques, the cremaster muscle of mice was exposed and visualized using intravital microscopy. A vascular injury in the muscle was then induced using a laser. After injury, clot formation was visualized using different fluorescently labeled antibodies that specifically recognize fibrin and platelets. Clotting is indicated by the presence of fluorescent signal from both types of antibodies.

[3] = system: thrombin generation in normal human plasma; assay: Thrombin generation assay using calibrated automated thrombography (CAT), Example 4; format: biochemical
Description: Normal human plasma was obtained from George King Biomedical (Overland Park, Kans.). […] Immediately preceding reaction initiation, 10 μL of vehicle or FXa^I16L was added to plasma at final concentrations ranging from 0.03125 nM to 0.5 nM FXa^I16L, given a 120 μL total reaction volume. Reactions were initiated by addition of 20 μL FluCa buffer containing calcium chloride and fluorogenic substrate. Fluorescence of plasma reactions was read at 37° C. at 20 second intervals on a Fluoroskan Ascent fluorometer and compared to those of reference thrombin calibrator reactions to determine thrombin concentrations. The intensity of the fluorescence signal (FU) was continuously monitored at 37° C. using the CAT. Thrombin generation curves (nM thrombin vs. time) were analyzed to extract lag time, peak height, time to peak, and the area under the curve representing the endogenous thrombin potential (ETP) using the Thromboscope software (Thrombinoscope BV version).

[4] = system: blood loss following a tail cut; details: mouse, in vivo, 50 mg/kg
Description: Thirty minutes later, mice were anesthetized with isoflurane and placed on a heated platform, and the body temperature of the mice was maintained at 37° C. prior to the tail cut. The tails were immersed in 50 mL pre-warmed phosphate buffered saline (PBS) at 37° C. for 2 minutes. A 3 mm tail cut was made and blood was collected into PBS for a 10 minute period. A quantitative assessment of the amount of bleeding was determined by hemoglobin content of the blood collected into PBS. Tubes were centrifuged to collect erythrocytes, resuspended in 5 mL lysis buffer (8.3 g/L NH4Cl, 1.0 g/L KHCO3, and 0.037 g/L EDTA), and the absorbance of the sample was measured at 575 nm. The absorbance values were converted to total blood loss (μL) using a standard curve.
Mice were then anesthetized with isoflurane and placed on a heated platform, and the body temperature of the mice was maintained at 37° C. prior to the tail cut. The tails were immersed in 50 mLs pre-warmed phosphate buffered saline (PBS) at 37° C. for 2 minutes. A 3 mm tail cut was made and blood was collected into PBS for a 10 minute period and the assessment of the amount of bleeding was determined by hemoglobin content as described.

[5] = system: clotting time of whole blood; assay: ROTEM of whole blood from mice administered rivaroxaban and FXa^I16L in vivo; design: species or system C57BL/6 mice; details: 1 mg/kg rivaroxaban via tail vein, buffer only about 2 min
Description: Mice were then prepared to expose the jugular vein and the vena cava. Approximately 10 mill later FXa^I16L (1 or 2 mg/kg) was infused by direct injection into the jugular vein. Five minutes post injection blood was collected via the vena cava into citrate and corn trypsin inhibitor. Collected blood was then analyzed by ROTEM using dilute tissue factor (Innovin, 1:42,000 dilution).

FXa^I16L = FXa^I16L (Homo sapiens, UniProt P00742, I235L); assay: Inhibition of free FXa^I16L peptidyl substrate (SpecXa) hydrolysis by rivaroxaban; format: biochemical; details: free enzyme
[6] = system: thrombin generation in normal human plasma; assay: Thrombin generation assay (TGA) in normal human plasma, Example 2; format: biochemical; details: 500 nM rivaroxaban versus plasma without rivaroxaban
Description: The thrombin generation assay (TGA) was used to assess whether the zymogen-like FXa variants can reverse the effects of direct FXa inhibitors in a more physiologic environment. The TGA measures thrombin production in plasma over time following the initiation of coagulation and was performed as previously described (See Bunce et al., (2011) Blood 117, 290-298, incorporated by reference herein in their entirety). […] Thrombin generation was initiated with 2.0 pM tissue factor/4 uM phospholipid as well as CaCl2 and a thrombin fluorogenic substrate.

[7] = high doses (supratherapeutic concentrations)
[8] = low doses (therapeutic concentrations)

FXa^I16L, sequence (P00742 41-179): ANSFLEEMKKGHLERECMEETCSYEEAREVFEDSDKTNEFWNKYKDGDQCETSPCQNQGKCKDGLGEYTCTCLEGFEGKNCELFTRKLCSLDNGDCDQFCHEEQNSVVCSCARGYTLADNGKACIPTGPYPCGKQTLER
FXa^I16L, sequence (P00742 235-488 I235L): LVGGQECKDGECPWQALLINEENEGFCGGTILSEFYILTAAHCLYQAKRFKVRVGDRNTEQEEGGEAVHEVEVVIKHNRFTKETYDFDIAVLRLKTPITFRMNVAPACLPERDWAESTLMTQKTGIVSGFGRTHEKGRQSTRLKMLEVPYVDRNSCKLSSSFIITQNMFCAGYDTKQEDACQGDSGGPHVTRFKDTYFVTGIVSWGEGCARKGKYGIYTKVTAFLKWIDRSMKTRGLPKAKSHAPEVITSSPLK

SMILES	whole blood clot formation, inhibitor alone [1, 7]	whole blood clot formation, inhibitor alone [1, 8]	accumulation of platelets at the injury site [2]	signs of fibrin at the injury site [2]	thrombin generation in normal human plasma ([3]; in vitro rivaroxaban treatment 5-200 nM)	ETP ([3]; rivaroxaban alone)	lag time ([3]; rivaroxaban alone)	peak thrombin ([3]; rivaroxaban alone)	blood loss following the tail transection [4]	clot time of whole blood (ROTEM) [5]	reduced affinity to FXa^I16L versus wild-type FXa (FXa^I16L)	thrombin generation profile of plasma [6]
COc1ccc(-n2nc(C(N)=O)c3c2C(=O)N(c2ccc(N4CCCCC4=O)cc2)CC3)cc1 [apixaban]	almost completely eliminated	partially eliminated	–	–	–	–	–	–	–	–	–	–
O=C(NC[C@H]1CN(c2ccc(N3CCOCC3=O)cc2)C(=O)O1)c1ccc(Cl)s1 [rivaroxaban]	almost completely eliminated	partially eliminated	delayed	eliminated	dose dependent inhibition	decrease	increase	decrease	increase	Approximately 10 min	~15 fold	substantially reduced
